“And” between values parts separate entries of the source, which are not always exact repeats. Equal entries are not always repeated. Toxic doses and inconclusive results are not listed.
Tested on: L1210 leukemia ip in BDF1 mice, survival T/C
Experiment: NCI In Vivo Anticancer Drug Screen. Data for tumor model L1210 Leukemia (intraperitoneal) in B6D2F1 (BDF1) mice
Details: endpoint: mean survival time, higher = longer survival
Summary of the method: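 Ratio derived from survival: compound-dosed mice over vehicle-dosed mice, all bearing a transplantable tumor.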

[1] = dose: 100.0 mg/kg/injection, schedule: Q01DX001 (ip), vehicle: Klucel (hydroxypropylcellulose) (HPC)
[2] = dose: 200.0 mg/kg/injection, schedule: Q01DX001 (ip), vehicle: Klucel (hydroxypropylcellulose) (HPC)
[3] = dose: 400.0 mg/kg/injection, schedule: Q01DX001 (ip), vehicle: Klucel (hydroxypropylcellulose) (HPC)
[4] = dose: 400.0 mg/kg/injection, schedule: Q04DX002 (ip), vehicle: saline with Tween-80
[5] = dose: 100.0 mg/kg/injection, schedule: Q01DX009 (ip), vehicle: Klucel (hydroxypropylcellulose) (HPC)
[6] = dose: 100.0 mg/kg/injection, schedule: Q01DX009 (ip), vehicle: saline with Tween-80
[7] = dose: 100.0 mg/kg/injection, schedule: Q04DX003 (ip), vehicle: saline with Tween-80
[8] = dose: 200.0 mg/kg/injection, schedule: Q01DX009 (ip), vehicle: saline with Tween-80
[9] = dose: 200.0 mg/kg/injection, schedule: Q04DX003 (ip), vehicle: saline with Tween-80
[10] = dose: 400.0 mg/kg/injection, schedule: Q01DX009 (ip), vehicle: saline with Tween-80
[11] = dose: 400.0 mg/kg/injection, schedule: Q04DX003 (ip), vehicle: saline with Tween-80
[12] = dose: 100.0 mg/kg/injection, schedule: Q01DX001 (ip), vehicle: saline
[13] = dose: 200.0 mg/kg/injection, schedule: Q01DX001 (ip), vehicle: saline
[14] = dose: 400.0 mg/kg/injection, schedule: Q01DX001 (ip), vehicle: saline
[15] = dose: 100.0 mg/kg/injection, schedule: Q04DX003 (ip), vehicle: saline
[16] = dose: 200.0 mg/kg/injection, schedule: Q04DX003 (ip), vehicle: saline
[17] = dose: 400.0 mg/kg/injection, schedule: Q04DX003 (ip), vehicle: saline

In the case of `COc1nn(C)c(=O)c2ncccc12`, the T/C (dose: 15.0 mg/kg/injection, schedule: Q01DX001 (ip), vehicle: carboxymethylcellulose (CMC)) is reported as 93 % of control and the T/C (dose: 30.0 mg/kg/injection, schedule: Q01DX001 (ip), vehicle: carboxymethylcellulose (CMC)) is reported as 92 % of control.
In the case of `Cc1ccc(C2Nc3ccccc3S(=O)(=O)C2c2ccccc2)cc1` (configuration not stated), the T/C [1] is reported as 95 % of control, the T/C [2] is reported as 106 % of control and the T/C [3] is reported as 101 % of control.
With `ClC1(Cl)C2/C=C/CCCCC21` (configuration not stated) the T/C (dose: 100.0 mg/kg/injection, schedule: Q01DX005 (ip), vehicle: saline with Tween-80) was 105 % of control, the T/C (dose: 100.0 mg/kg/injection, schedule: Q04DX002 (ip), vehicle: saline with Tween-80) was 92 % of control and the T/C (dose: 200.0 mg/kg/injection, schedule: Q01DX005 (ip), vehicle: saline with Tween-80) was 92 % of control. The T/C (dose: 200.0 mg/kg/injection, schedule: Q04DX002 (ip), vehicle: saline with Tween-80) was 113 % of control, the T/C (dose: 400.0 mg/kg/injection, schedule: Q01DX005 (ip), vehicle: saline with Tween-80) was 92 % of control and the T/C [4] was 95 % of control.
`Cc1ccc(NC(=O)Oc2cccnc2)cc1NC(=O)Oc1cccnc1` was tested, and the T/C [5] was 93 % of control and the T/C (dose: 200.0 mg/kg/injection, schedule: Q01DX009 (ip), vehicle: Klucel (hydroxypropylcellulose) (HPC)) was 94 % of control.
For `CC(=O)Nc1c(C)cc(Cl)cc1Cl`, the T/C (dose: 25.6 mg/kg/injection, schedule: Q04DX002 (ip), vehicle: saline with Tween-80) was 95 % of control, the T/C (dose: 64.0 mg/kg/injection, schedule: Q04DX002 (ip), vehicle: saline with Tween-80) was 95 % of control and the T/C [6] was 91 % of control. The T/C [7] was 91 % of control, the T/C (dose: 160.0 mg/kg/injection, schedule: Q04DX002 (ip), vehicle: saline with Tween-80) was 95 % of control and the T/C [8] was 89 % of control. The T/C [9] was 95 % of control, the T/C [10] was 96 % of control and the T/C [4] was 98 % of control. For the same molecule, the T/C [11] was 98 % of control.
With `O=C(NC(CO)C(O)c1ccc(N=Nc2cccc3ccccc23)cc1)C(Cl)Cl` (configuration not stated) the T/C [7] was 101 % of control, the T/C [9] was 95 % of control and the T/C [11] was 93 % of control.
For `C=COC(=O)NC(CCSC)C(=O)O` (configuration not stated), the T/C (dose: 50.0 mg/kg/injection, schedule: Q01DX001 (ip), vehicle: saline) was 101 % of control and the T/C [12] was 98 % of control.
With `CSc1cc(N)cc(C(=O)O)c1O` the T/C [6] was 92 % of control, the T/C [8] was 89 % of control and the T/C [10] was 88 % of control.
`O=C1O[C@@H]2[C@@H](I)[C@@H]3C[C@@H]2[C@@H]1C3` was tested, and the T/C (dose: 5.0 mg/kg/injection, schedule: Q01DX001 (ip), vehicle: carboxymethylcellulose (CMC)) was 91 % of control, the T/C (dose: 10.0 mg/kg/injection, schedule: Q01DX001 (ip), vehicle: carboxymethylcellulose (CMC)) was 93 % of control and the T/C (dose: 20.0 mg/kg/injection, schedule: Q01DX001 (ip), vehicle: carboxymethylcellulose (CMC)) was 94 % of control. For the same molecule, the T/C (dose: 40.0 mg/kg/injection, schedule: Q01DX001 (ip), vehicle: carboxymethylcellulose (CMC)) was 91 % of control and the T/C (dose: 80.0 mg/kg/injection, schedule: Q01DX001 (ip), vehicle: carboxymethylcellulose (CMC)) was 93 % of control.
`O=C(O)/C=C\C=C\c1ccccc1` was tested, and the T/C [12] was 89 % of control, the T/C [13] was 94 % of control and the T/C [14] was 96 % of control.
In the case of `c1ccc2c(c1)CCCc1cn[nH]c1-2`, the T/C [12] is reported as 98 % of control and the T/C [13] is reported as 95 % of control.
`CCCC(C(=O)O)C(O)(CC(=O)O)C(=O)O` (configuration not stated) was tested, and the T/C [15] was 101 % of control, the T/C [16] was 101 % of control and the T/C [17] was 95 % of control.
For `Cc1c(Cl)cccc1Nc1n[nH]c(=S)s1`, the T/C (dose: 75.0 mg/kg/injection, schedule: Q01DX001 (ip), vehicle: other) was 98 % of control, the T/C (dose: 150.0 mg/kg/injection, schedule: Q01DX001 (ip), vehicle: other) was 98 % of control and the T/C (dose: 300.0 mg/kg/injection, schedule: Q01DX001 (ip), vehicle: other) was 93 % of control.
With `C/C(CC(=O)Nc1ccc(Cc2ccc(Cl)cc2)cc1)=N/Nc1ccc([N+](=O)[O-])cc1[N+](=O)[O-]` the T/C [12] was 94 % of control and the T/C [13] was 101 % of control.
For `CN(C)CCCOc1c2ccccc2cc2ccccc12`, the T/C (dose: 1.0 mg/kg/injection, schedule: Q01DX015 (ip), vehicle: carboxymethylcellulose (CMC)) was 92 % of control, the T/C (dose: 2.0 mg/kg/injection, schedule: Q01DX015 (ip), vehicle: carboxymethylcellulose (CMC)) was 92 % of control and the T/C (dose: 4.0 mg/kg/injection, schedule: Q01DX015 (ip), vehicle: carboxymethylcellulose (CMC)) was 92 % of control. For the same molecule, the T/C (dose: 8.0 mg/kg/injection, schedule: Q01DX015 (ip), vehicle: carboxymethylcellulose (CMC)) was 104 % of control and 90 % of control and the T/C (dose: 16.0 mg/kg/injection, schedule: Q01DX015 (ip), vehicle: carboxymethylcellulose (CMC)) was 98 % of control.
`Fc1c(F)c(F)c(S/C=C/c2ccccc2)c(F)c1F` was tested, and the T/C [1] was 96 % of control, the T/C [2] was 118 % of control and the T/C [3] was 105 % of control.
With `CC(=O)Nc1ccc(OC(=O)Nc2c(C)cccc2Cl)cc1` the T/C (dose: 25.0 mg/kg/injection, schedule: Q01DX009 (ip), vehicle: Klucel (hydroxypropylcellulose) (HPC)) was 101 % of control, the T/C (dose: 50.0 mg/kg/injection, schedule: Q01DX009 (ip), vehicle: Klucel (hydroxypropylcellulose) (HPC)) was 95 % of control and the T/C [5] was 94 % of control and 101 % of control.
For `CN(C)C(=O)c1cccc(N)c1`, the T/C (dose: 100.0 mg/kg/injection, schedule: Q01DX009 (ip), vehicle: saline) was 101 % of control, the T/C [15] was 103 % of control and the T/C (dose: 200.0 mg/kg/injection, schedule: Q01DX009 (ip), vehicle: saline) was 98 % of control. For the same molecule, the T/C [16] was 100 % of control, the T/C (dose: 400.0 mg/kg/injection, schedule: Q01DX009 (ip), vehicle: saline) was 90 % of control and the T/C [17] was 102 % of control.
In the case of `O=C(Nc1ccc(NC(=O)Nc2ccc(C3=NCCCN3)cc2)cc1)Nc1ccc(C2=NCCCN2)cc1`, the T/C (dose: 8.3 mg/kg/injection, schedule: Q04DX003 (ip), vehicle: saline with Tween-80) is reported as 107 % of control, the T/C (dose: 12.0 mg/kg/injection, schedule: Q04DX003 (ip), vehicle: saline with Tween-80) is reported as 121 % of control and the T/C [12] is reported as 124 % of control. For the same molecule, the T/C [16] was 159 % of control, the T/C (dose: 264.0 mg/kg/injection, schedule: Q01DX001 (ip), vehicle: saline) was 208 % of control and the T/C [17] was 279 % of control.
`CCOC(=O)C(O)C(Cl)(c1ccccc1)C(C)C` (configuration not stated) was tested, and the T/C (dose: 100.0 mg/kg/injection, schedule: Q04DX002 (ip), vehicle: saline) was 100 % of control, the T/C (dose: 200.0 mg/kg/injection, schedule: Q04DX002 (ip), vehicle: saline) was 114 % of control and the T/C (dose: 400.0 mg/kg/injection, schedule: Q04DX002 (ip), vehicle: saline) was 111 % of control.
In the case of `CC(O)C12OC1CC1C3CC4OC45CC(O)CCC5(C)C3CCC12C` (configuration not stated), the T/C (dose: 100.0 mg/kg/injection, schedule: Q01DX001 (sc), vehicle: steriod suspending solution) is reported as 106 % of control, the T/C (dose: 200.0 mg/kg/injection, schedule: Q01DX001 (sc), vehicle: steriod suspending solution) is reported as 103 % of control and the T/C (dose: 400.0 mg/kg/injection, schedule: Q01DX001 (sc), vehicle: steriod suspending solution) is reported as 109 % of control.
`O=c1cc(-c2ccccc2Br)[nH]c2ccccc12` was tested, and the T/C [12] was 96 % of control, the T/C [13] was 100 % of control and the T/C [14] was 96 % of control.
In the case of `CCCCCC(=O)N1CCCCC1CC` (configuration not stated), the T/C (dose: 100.0 mg/kg/injection, schedule: Q04DX002 (ip), vehicle: Klucel (hydroxypropylcellulose) (HPC)) is reported as 92 % of control and the T/C (dose: 200.0 mg/kg/injection, schedule: Q04DX002 (ip), vehicle: Klucel (hydroxypropylcellulose) (HPC)) is reported as 92 % of control.
`Cc1cc2nc3[nH]c4c(Cl)cc(Cl)cc4c3nc2cc1C` was tested, and the T/C [12] was 91 % of control, the T/C [13] was 89 % of control and the T/C [14] was 89 % of control.
With `CCCP(=S)(CCC)N(C)C` the T/C [7] was 101 % of control and the T/C [9] was 104 % of control.
For `CCCCCCOCCN1CCN(CCCN2c3ccccc3Sc3ccc(C(F)(F)F)cc32)CC1`, the T/C (dose: 12.5 mg/kg/injection, schedule: Q04DX003 (ip), vehicle: saline with Tween-80) was 106 % of control, the T/C (dose: 25.0 mg/kg/injection, schedule: Q04DX003 (ip), vehicle: saline with Tween-80) was 101 % of control and the T/C (dose: 50.0 mg/kg/injection, schedule: Q04DX003 (ip), vehicle: saline with Tween-80) was 101 % of control. The T/C [7] was 93 % of control.

— PubChem BioAssay AID248 (DTP/NCI, 2004)
